Data as given in ChEMBL document CHEMBL4665688, “Discovery of AB680: A Potent and Selective Inhibitor of CD73” (J Med Chem, 2020).

Legend:
5'-nucleotidase [1] = target: T1, 5'-nucleotidase (Homo sapiens, UniProt P21589); assay: Inhibition of human CD73 expressed in CHO cells using AMP as substrate preincubated for 60 mins followed by substrate addition and measured after 60 mins by PiColorLock gold reagent based colorimetric assay; format: cell-based
[2] = Clearance in Sprague-Dawley rat at 0.5 mg/kg, iv; format: ADME, organism-based; conditions: in vivo
5'-nucleotidase [3] = target: T1, 5'-nucleotidase; assay: Inhibition of human CD73 using AMP as substrate by Malachite green phosphate reagent-based assay

T1 sequence (P21589 whole entry): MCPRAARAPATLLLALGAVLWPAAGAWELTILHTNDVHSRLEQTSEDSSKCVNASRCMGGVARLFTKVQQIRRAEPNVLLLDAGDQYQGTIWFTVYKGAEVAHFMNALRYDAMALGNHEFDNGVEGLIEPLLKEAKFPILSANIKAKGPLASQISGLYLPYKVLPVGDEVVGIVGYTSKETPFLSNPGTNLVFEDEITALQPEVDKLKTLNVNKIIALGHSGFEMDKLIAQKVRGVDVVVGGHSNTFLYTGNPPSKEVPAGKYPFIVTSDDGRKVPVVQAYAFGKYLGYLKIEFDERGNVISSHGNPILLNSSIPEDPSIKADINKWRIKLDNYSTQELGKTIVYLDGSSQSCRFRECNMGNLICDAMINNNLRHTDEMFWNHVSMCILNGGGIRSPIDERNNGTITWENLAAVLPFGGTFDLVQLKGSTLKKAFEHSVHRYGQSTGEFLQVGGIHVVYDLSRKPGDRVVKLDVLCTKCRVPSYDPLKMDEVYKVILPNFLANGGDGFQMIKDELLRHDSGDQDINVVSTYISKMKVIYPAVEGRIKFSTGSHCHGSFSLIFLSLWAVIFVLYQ

| SMILES | IC50 (5'-nucleotidase [1]) | clearance [2] | IC50 (5'-nucleotidase [3]) |
| --- | --- | --- | --- |
| Nc1nc(Cl)nc2c1ncn2[C@@H]1O[C@H](COP(=O)(O)CP(=O)(O)O)[C@@H](O)[C@@H]1F | 3.4 nM | – | – |
| Nc1nc(Cl)nc2c1ncn2[C@@H]1O[C@H](COP(=O)(O)CP(=O)(O)O)[C@@H](O)[C@H]1O | 5 nM | – | – |
| C[C@H](Nc1nc(Cl)nc2c1cnn2[C@@H]1O[C@H](COP(=O)(O)CP(=O)(O)O)[C@@H](O)[C@H]1O)c1cccc(F)c1 | 0.031 nM | 0.833 mL/min/kg | – |
| O=P(O)(O)CP(=O)(O)OC[C@H]1O[C@@H](n2cnc3c(N4CCCC4)nc(Cl)nc32)[C@@H](F)[C@@H]1O | 0.9 nM | – | – |
| C[C@H](Nc1nc(Cl)nc2c1cnn2[C@@H]1O[C@H](COP(=O)(O)CP(=O)(O)O)[C@@H](O)[C@@H]1F)c1ccccc1 | 5.4 nM | 0.483 mL/min/kg | – |
| CCc1nc(NCc2ccccc2)c2ncn([C@@H]3O[C@H](COP(=O)(O)CP(=O)(O)O)[C@@H](O)[C@H]3O)c2n1 | 12 nM | – | – |
| O=P(O)(O)CP(=O)(O)OC[C@H]1O[C@@H](n2cnc3c(NC4CCCC4)nc(C(O)c4ccccc4)nc32)[C@@H](F)[C@@H]1O (stereo partly specified) | 3.3 nM | – | – |
| O=P(O)(O)CP(=O)(O)OC[C@H]1O[C@@H](n2cnc3c(NC4CCCC4)nc(Cl)nc32)[C@H](O)[C@@H]1O | 0.2 nM | – | – |
| C[C@@H](Nc1nc(Cl)nc2c1cnn2[C@@H]1O[C@H](COP(=O)(O)CP(=O)(O)O)[C@@H](O)[C@H]1O)c1ccccc1 | 0.058 nM | 2.83 mL/min/kg | – |
| C[C@H](Nc1nc(Cl)nc2c1ccn2[C@@H]1O[C@H](COP(=O)(O)CP(=O)(O)O)[C@@H](O)[C@H]1O)c1ccc(F)cc1 | 0.031 nM | 0.5 mL/min/kg | – |
| CC(C)Nc1nc(Cl)nc2c1ncn2[C@@H]1O[C@H](COP(=O)(O)CP(=O)(O)O)[C@@H](O)[C@H]1O | 0.7 nM | – | – |
| O=P(O)(O)CP(=O)(O)OC[C@H]1O[C@@H](n2cnc3c(NCc4ccncc4)nc(Cl)nc32)[C@@H](F)[C@@H]1O | 3.6 nM | – | – |
| C[C@@H](Nc1nc(Cl)nc2c1ncn2[C@@H]1O[C@H](COP(=O)(O)CP(=O)(O)O)[C@@H](O)[C@@H]1F)c1ccccc1 | 1.6 nM | 4.67 mL/min/kg | – |
| Cc1nc(NCc2ccccc2)c2ncn([C@@H]3O[C@H](COP(=O)(O)CP(=O)(O)O)[C@@H](O)[C@@H]3F)c2n1 | 4 nM | – | – |
| COCc1nc(NC2CCCC2)c2ncn([C@@H]3O[C@H](COP(=O)(O)CP(=O)(O)O)[C@@H](O)[C@@H]3F)c2n1 | 0.6 nM | – | – |
| O=P(O)(O)CP(=O)(O)OC[C@H]1O[C@@H](n2cnc3c(NC4CCCC4)nc(Cl)nc32)[C@@H](F)[C@@H]1O | 0.4 nM | 2.5 mL/min/kg | – |
| O=P(O)(O)CP(=O)(O)OC[C@H]1O[C@@H](n2ncc3c(NC4CCCC4)nc(Cl)nc32)[C@H](O)[C@@H]1O | 0.027 nM | 10.5 mL/min/kg | – |
| O=P(O)(O)CP(=O)(O)OC[C@H]1O[C@@H](n2cnc3c(NCc4ccccc4)nc(C(F)(F)F)nc32)[C@@H](F)[C@@H]1O | 18 nM | – | – |
| C[C@@H](Nc1nc(Cl)nc2c1ncn2[C@@H]1O[C@H](COP(=O)(O)CP(=O)(O)O)[C@@H](O)[C@H]1O)c1ccccc1 | 0.7 nM | – | – |

| SMILES | IC50 (5'-nucleotidase [1]) | clearance [2] | IC50 (5'-nucleotidase [3]) |
| --- | --- | --- | --- |
| CC(C)Nc1nc(Cl)nc2c1ncn2[C@@H]1O[C@H](COP(=O)(O)CP(=O)(O)O)[C@@H](O)[C@@H]1F | 3.6 nM | – | – |
| CNc1nc(NCc2ccccc2)c2ncn([C@@H]3O[C@H](COP(=O)(O)CP(=O)(O)O)[C@@H](O)[C@H]3O)c2n1 | 5 nM | – | – |
| O=P(O)(O)CP(=O)(O)OC[C@H]1O[C@@H](n2ncc3c(NCc4ccccc4)nc(Cl)nc32)[C@@H](F)[C@@H]1O | 5.9 nM | – | – |
| CN(c1nc(Cl)nc2c1ncn2[C@@H]1O[C@H](COP(=O)(O)CP(=O)(O)O)[C@@H](O)[C@H]1O)C1CCCC1 | 0.12 nM | – | – |
| O=P(O)(O)CP(=O)(O)OC[C@H]1O[C@@H](n2cnc3c(NC4CCCC4)nc(C(O)C4CC4)nc32)[C@@H](F)[C@@H]1O (stereo partly specified) | 1.4 nM | – | – |
| O=P(O)(O)CP(=O)(O)OC[C@H]1O[C@@H](n2cnc3c(N4Cc5ccccc5C4)nc(Cl)nc32)[C@@H](F)[C@@H]1O | 1.1 nM | – | – |
| CCNc1nc(Cl)nc2c1ncn2[C@@H]1O[C@H](COP(=O)(O)CP(=O)(O)O)[C@@H](O)[C@@H]1F | 5 nM | – | – |
| CN(c1nc(Cl)nc2c1ncn2[C@@H]1O[C@H](COP(=O)(O)CP(=O)(O)O)[C@@H](O)[C@@H]1F)C1CCCC1 | 0.15 nM | – | – |
| O=P(O)(O)CP(=O)(O)OC[C@H]1O[C@@H](n2cnc3c(NCc4cccc(Cl)c4)nc(Cl)nc32)[C@@H](F)[C@@H]1O | 1.3 nM | – | – |
| C#Cc1nc(NCc2ccccc2)c2ncn([C@@H]3O[C@H](COP(=O)(O)CP(=O)(O)O)[C@@H](O)[C@@H]3F)c2n1 | 2 nM | – | – |
| O=P(O)(O)CP(=O)(O)OC[C@H]1O[C@@H](n2cnc3c(NCc4ccccc4)nc(CCc4ccccc4)nc32)[C@@H](F)[C@@H]1O | 18 nM | – | – |
| O=P(O)(O)CP(=O)(O)OC[C@H]1O[C@@H](n2cnc3c(N[C@H]4CCOC4)nc(Cl)nc32)[C@@H](F)[C@@H]1O | 0.8 nM | – | – |
| CNc1nc(Cl)nc2c1ncn2[C@@H]1O[C@H](COP(=O)(O)CP(=O)(O)O)[C@@H](O)[C@@H]1F | 12 nM | – | – |
| O=P(O)(O)CP(=O)(O)OC[C@H]1O[C@@H](n2cnc3c(NCc4ccccc4)nc(N4CCCC4)nc32)[C@H](O)[C@@H]1O | 48 nM | – | – |
| O=P(O)(O)CP(=O)(O)OC[C@H]1O[C@@H](n2cnc3c(NCc4ccccc4)nc(Cc4ccccc4)nc32)[C@@H](F)[C@@H]1O | 1.5 nM | – | – |
| O=P(O)(O)CP(=O)(O)OC[C@H]1O[C@@H](n2ncc3c(NC4CCCC4)nc(Cl)nc32)[C@@H](F)[C@@H]1O | 0.15 nM | 4.5 mL/min/kg | – |
| C[C@H](Nc1nc(Cl)nc2c1ccn2[C@@H]1O[C@H](COP(=O)(O)CP(=O)(O)O)[C@@H](O)[C@H]1O)c1ccccc1F | 0.028 nM | 0.833 mL/min/kg | – |
| O=P(O)(O)CP(=O)(O)OC[C@H]1O[C@@H](n2cnc3c(NC4CC4)nc(Cl)nc32)[C@H](O)[C@@H]1O | 1.7 nM | – | – |
| O=P(O)(O)CP(=O)(O)OC[C@H]1O[C@@H](n2cnc3c(NC4CCCC4)nc(C(O)C4CCOCC4)nc32)[C@@H](F)[C@@H]1O (stereo partly specified) | 202 nM | – | – |

| SMILES | IC50 (5'-nucleotidase [1]) | clearance [2] | IC50 (5'-nucleotidase [3]) |
| --- | --- | --- | --- |
| C[C@H](Nc1nc(Cl)nc2c1cnn2[C@@H]1O[C@H](COP(=O)(O)CP(=O)(O)O)[C@@H](O)[C@H]1O)c1ccc(F)cc1 | 0.095 nM | – | – |
| C[C@H](Nc1nc(Cl)nc2c1ncn2[C@@H]1O[C@H](COP(=O)(O)CP(=O)(O)O)[C@@H](O)[C@@H]1F)c1ccccc1 | 4.1 nM | 0.35 mL/min/kg | – |
| O=P(O)(O)CP(=O)(O)OC[C@H]1O[C@@H](n2cnc3c(NCc4ccccc4)nc(Cl)nc32)[C@@H](F)[C@@H]1O | 0.7 nM | 1 mL/min/kg | – |
| C[C@H](Nc1nc(Cl)nc2c1ncn2[C@@H]1O[C@H](COP(=O)(O)CP(=O)(O)O)[C@@H](O)[C@H]1O)c1ccccc1 | 0.3 nM | – | – |
| O=P(O)(O)CP(=O)(O)OC[C@H]1O[C@@H](n2cnc3c(NC4CC4)nc(Cl)nc32)[C@@H](F)[C@@H]1O | 2.6 nM | – | – |
| C[C@H](Nc1nc(Cl)nc2c1cnn2[C@@H]1O[C@H](COP(=O)(O)CP(=O)(O)O)[C@@H](O)[C@H]1O)c1ccccc1F | 0.07 nM | 0.667 mL/min/kg | – |
| O=P(O)(O)CP(=O)(O)OC[C@H]1O[C@@H](n2cnc3c(NCc4ccccc4Cl)nc(Cl)nc32)[C@@H](F)[C@@H]1O | 4.2 nM | – | – |
| C[C@@H](Nc1nc(Cl)nc2c1cnn2[C@@H]1O[C@H](COP(=O)(O)CP(=O)(O)O)[C@@H](O)[C@@H]1F)c1ccccc1 | 2.1 nM | 9.33 mL/min/kg | – |
| O=P(O)(O)CP(=O)(O)OC[C@H]1O[C@@H](n2cnc3c(NCc4ccccc4)nc(Cl)nc32)[C@H](O)[C@@H]1O | 0.3 nM | – | – |
| O=P(O)(O)CP(=O)(O)OC[C@H]1O[C@@H](n2ncc3c(NCc4ccccc4)nc(Cl)nc32)[C@H](O)[C@@H]1O | 0.052 nM | 3.33 mL/min/kg | – |
| COc1nc(NCc2ccccc2)c2ncn([C@@H]3O[C@H](COP(=O)(O)CP(=O)(O)O)[C@@H](O)[C@H]3O)c2n1 | 2.2 nM | – | – |
| O=P(O)(O)CP(=O)(O)OC[C@H]1O[C@@H](n2cnc3c(OCc4ccccc4)nc(Cl)nc32)[C@@H](F)[C@@H]1O | 1.3 nM | – | – |
| Cc1nc(NCc2ccccc2)c2ncn([C@@H]3O[C@H](COP(=O)(O)CP(=O)(O)O)[C@@H](O)[C@H]3O)c2n1 | 1.3 nM | – | – |
| O=P(O)(O)CP(=O)(O)OC[C@H]1O[C@@H](n2cnc3c(NCc4ccc(Cl)cc4)nc(Cl)nc32)[C@@H](F)[C@@H]1O | 2.4 nM | – | – |
| C[C@H](Nc1nc(Cl)nc2c1ccn2[C@@H]1O[C@H](COP(=O)(O)CP(=O)(O)O)[C@@H](O)[C@H]1O)c1cccc(F)c1 | 0.032 nM | 0.667 mL/min/kg | – |
| O=P(O)(O)CP(=O)(O)OC[C@H]1O[C@@H](n2cnc3c(NCc4ccccc4)nc(-c4ccccc4)nc32)[C@@H](F)[C@@H]1O | 10 nM | – | – |
| Nc1ncnc2c1ncn2[C@@H]1O[C@H](COP(=O)(O)CP(=O)(O)O)[C@@H](O)[C@H]1F | 18 nM | – | – |
| Nc1ncnc2c1ncn2[C@@H]1O[C@H](COP(=O)(O)CP(=O)(O)O)[C@@H](O)[C@H]1O [PHOSPHOMETHYLPHOSPHONIC ACID ADENOSYL ESTER] | – | – | 187 nM |
